Tested on: tumor cell lines
Assay: Cytotoxicity (in vitro)
Format: cell-based
Settings: range of GI50 values, cell lines not named
Description: A program was initiated in the laboratory for the design and synthesis of new 4β-aryl amino substituted podophyllotoxin congeners with enhanced antitumour activity and/or activity against etoposide resistant tumor cell lines. In these efforts new 4β-1″-[{2″-benzoyl substituted}anilino] podophyllotoxin derivatives have been synthesized and evaluated for their cytotoxicity and anticancer potency. […] The synthesis of these compounds has been carried out as described in the scheme using podophyllotoxin obtained from the resin. The cytotoxicity of 4a–4p values have been illustrated in the Table 1.

Q: `COc1cc(C2c3cc4c(cc3C(Nc3ccc(C(=O)c5ccccc5)cc3[N+](=O)[O-])C3COC(=O)C23)OCO4)cc(OC)c1O` (stereo not drawn) [4n] was tested. Which GI50 did it give?
A: 10 to 240 nM

Q: For `COc1cc(C2c3cc4c(cc3C(Nc3ccc(Cl)cc3C(=O)c3ccccc3)C3COC(=O)C23)OCO4)cc(OC)c1OC` (stereo not drawn) [4g, 4β-1″-[2″-(Benzoyl)-4″-chloroanilino]-4-desoxypodophyllotoxin], which GI50 is on record?
A: 70 to 1100 nM

Q: Which GI50 does the source give for `COc1cc([C@@H]2c3cc4c(cc3[C@@H](Nc3ccc([N+](=O)[O-])cc3C(=O)c3ccccc3)[C@@H]3COC(=O)[C@H]23)OCO4)cc(OC)c1O` [4f] here?
A: 10 to 240 nM

Q: How did the GI50 turn out when `COc1cc([C@@H]2c3cc4c(cc3[C@@H](Nc3ccc(Cl)cc3C(=O)c3ccccc3F)[C@@H]3COC(=O)[C@H]23)OCO4)cc(OC)c1OC` [4i, 4β-1″-[2″-(2-Fluorobenzoyl)-4″-chloroanilino]-4-desoxypodophyllotoxin] was run?
A: 140 to 300 nM

Q: `COc1cc([C@@H]2c3cc4c(cc3[C@@H](Nc3ccccc3C(=O)c3ccccc3)[C@@H]3COC(=O)[C@H]23)OCO4)cc(OC)c1OC` [4a, 4β-1″-[2″-(Benzoyl)anilino]-4-desoxypodophyllotoxin] was tested. Which GI50 did it give?
A: 40 to 500 nM

Q: For `COc1cc([C@@H]2c3cc4c(cc3[C@@H](Nc3ccccc3C(=O)c3ccccc3)[C@@H]3COC(=O)[C@H]23)OCO4)cc(OC)c1O` [4b, 4′-O-Demethyl-4β-1″-[2″-(benzoyl)anilino]-4-desoxypodophyllotoxin], which GI50 is on record?
A: 15000 to 382000 nM

Q: Which GI50 does the source give for `COc1cc(C2c3cc4c(cc3C(Nc3ccc(Cl)cc3C(=O)c3ccccc3)C3COC(=O)C23)OCO4)cc(OC)c1O` (stereo not drawn) [4h] here?
A: 14000 to 270000 nM

Q: With `COc1cc([C@@H]2c3cc4c(cc3[C@@H](Nc3ccc(Cl)cc3C(=O)c3ccccc3Cl)[C@@H]3COC(=O)[C@H]23)OCO4)cc(OC)c1OC` [4c, 4β-1″-[2″-(2-Chlorobenzoyl)-4″-chloroanilino]-4-desoxypodophyllotoxin] as the molecule, how does the GI50 read?
A: 59 to 876 nM

Q: `COc1cc([C@@H]2c3cc4c(cc3[C@@H](Nc3cccc(C(=O)c5ccccc5)c3)[C@@H]3COC(=O)[C@H]23)OCO4)cc(OC)c1OC` [4k, 4β-1″-[3″-(Benzoyl)anilino]-4-desoxypodophyllotoxin] was tested. Which GI50 did it give?
A: 100 to 1000 nM

Q: For `COc1cc(C2c3cc4c(cc3C(Nc3ccc(Cl)cc3C(=O)c3ccccc3F)C3COC(=O)C23)OCO4)cc(OC)c1O` (stereo not drawn) [4j, 4′-O-Demethyl-4β-1″-[2″-(2-Fluorobenzoyl)-4″-chloroanilino]-4-desoxypodo-phyllotoxin], which GI50 is on record?
A: 4 to 100 nM

Q: With `COc1cc([C@@H]2c3cc4c(cc3[C@@H](Nc3cccc(C(=O)c5ccccc5)c3)[C@@H]3COC(=O)[C@H]23)OCO4)cc(OC)c1O` [4l, 4′-O-Demethyl-4β-1″-[3″-(benzoyl)anilino]-4-desoxypodophyllotoxin] as the molecule, how does the GI50 read?
A: 2000 to 16000 nM

Q: `COc1cc(C2c3cc4c(cc3C(Nc3ccc(Cl)cc3C(=O)c3ccccc3Cl)C3COC(=O)C23)OCO4)cc(OC)c1O` (stereo not drawn) [4d, 4′-O-Demethyl-4β-1″-[2″-(2-Chlorobenzoyl)-4″-chloroanilino]-4-desoxypodo-phyllotoxin] was tested. Which GI50 did it give?
A: 100 to 240 nM
